# Earlier results as cited in patent US10251409B2, “Mixtures of matter” (SYMRISE AG, priority 2013, dated 2019).
# Conditions: compared with sugar
compound,measurement,value
C=C1C[C@@]23CC[C@H]4[C@@](C)(CCC[C@@]4(C)C(=O)O[C@@H]4O[C@H](CO)[C@@H](O)[C@H](O)[C@H]4O)[C@@H]2CC[C@]1(O[C@@H]1O[C@H](CO)[C@@H](O)[C@H](O[C@@H]2O[C@H](CO)[C@@H](O)[C@H](O)[C@H]2O)[C@H]1O[C@@H]1O[C@H](CO)[C@@H](O)[C@H](O)[C@H]1O)C3 [rebaudioside A],Sweetening power relative to sugar,up to 450 times
